Laboratory results as given in paper PMC10726481, “New Teixobactin Analogues with a Total Lactam Ring” (ACS Medicinal Chemistry Letters, 2023).
In brackets after ≈: the same amount, converted by molar mass. Bridge positions count the residues as written; N and C are the ends. Square brackets hold non-standard residues; d marks the D form. Peptide text beside a SMILES is read from it. d(aIle) = CC[C@H](C)[C@@H](N)C(=O)O; dNMeF = CN[C@H](Cc1ccccc1)C(=O)O; Nle = CCCC[C@H](N)C(=O)O; dDap = NC[C@@H](N)C(=O)O

Key:
[1] = tested on: C. glabrata ATCC 15126; test: microbe, parasite or virus in culture; assay type: cell-based; conditions: for MIC C. glabrata ATCC 15126: ATCC 15126, 24 h
Experimental: (§1) . The minimum inhibitory concentrations (MICs) of synthesized compounds were assessed according to the broth microdilution method using 96-well plates, in reference to the protocol of the Clinical and Laboratory Standards Institute (CLSI).[32],[33] In assays, reference strains of the bacteria S. aureus ATCC 25923, S. epidermidis ATCC 14990, and E. coli ATCC 25922 and the fungus C. glabrata ATCC 15126 were used, all from The Polish Collection of Microorganism, Polish Academy of Sciences, Wrocław, Poland. Bacteria at initial inoculums of 0.5 × 10^5 CFU/mL in Mueller–Hinton Broth (MHB), and fungus at initial inoculums of 2 × 10^3 CFU/mL in RPMI-1640, were exposed to the serial dilution of compounds. Tested concentrations were in the range 1–512 μg/mL. 96-well plates with microorganisms and tested substances were incubated at 37 °C for 18 h for bacteria and for 24 h for C. glabrata. The MIC values were taken as the lowest concentrations at which visible growth of microorganisms was inhibited. The minimum inhibitory concentrations (MICs) for MRSA ATCC 33591 were tested at the University of Liverpool. Bacterial cultures were grown overnight in Mueller–Hinton Agar (MHA) plates and adjusted to a final concentration of 10^5–10^6 CFU/mL. 100 μL of inoculum in Meuller–Hinton broth (MHB) was mixed with an equal volume of peptides (dissolved in MHB) at 2× their concentration in a 96-well plate. […] The final peptide concentrations ranged from 0.0625–32 μg/mL (the lower range 0.031–16 μg/mL was used). Positive and negative controls contained 200 μL of inoculum without any peptide dissolved in broth, respectively. The 96-well plates were then incubated at 37 °C for 24 h. All the experiments were performed in two independent duplicates, and the MIC was determined as the lowest concentration in which no visible growth was observed.

[2] = tested on: E. coli ATCC 25922; test: microbe, parasite or virus in culture; assay type: cell-based; conditions: for MIC E. coli ATCC 25922: ATCC 25922, 18 h
Experimental: as §1

[3] = tested on: S. aureus ATCC 25923; assay type: cell-based; conditions: ATCC 25923, 18 h
Experimental: (§2) . The minimum inhibitory concentrations (MICs) of synthesized compounds were assessed according to the broth microdilution method using 96-well plates, in reference to the protocol of the Clinical and Laboratory Standards Institute (CLSI).[32],[33] In assays, reference strains of the bacteria S. aureus ATCC 25923, S. epidermidis ATCC 14990, and E. coli ATCC 25922 and the fungus C. glabrata ATCC 15126 were used, all from The Polish Collection of Microorganism, Polish Academy of Sciences, Wrocław, Poland. Bacteria at initial inoculums of 0.5 × 10^5 CFU/mL in Mueller–Hinton Broth (MHB), and fungus at initial inoculums of 2 × 10^3 CFU/mL in RPMI-1640, were exposed to the serial dilution of compounds. Tested concentrations were in the range 1–512 μg/mL. 96-well plates with microorganisms and tested substances were incubated at 37 °C for 18 h for bacteria and for 24 h for C. glabrata. The MIC values were taken as the lowest concentrations at which visible growth of microorganisms was inhibited. The minimum inhibitory concentrations (MICs) for MRSA ATCC 33591 were tested at the University of Liverpool. Bacterial cultures were grown overnight in Mueller–Hinton Agar (MHA) plates and adjusted to a final concentration of 10^5–10^6 CFU/mL. 100 μL of inoculum in Meuller–Hinton broth (MHB) was mixed with an equal volume of peptides (dissolved in MHB) at 2× their concentration in a 96-well plate. […] Positive and negative controls contained 200 μL of inoculum without any peptide dissolved in broth, respectively. The 96-well plates were then incubated at 37 °C for 24 h. All the experiments were performed in two independent duplicates, and the MIC was determined as the lowest concentration in which no visible growth was observed.

[4] = tested on: S. epidermidis ATCC 14990; assay type: cell-based; conditions: ATCC 14990, 18 h
Experimental: as §2

[5] = tested on: MRSA ATCC 33591; assay type: cell-based, methicillin-resistant S. aureus; conditions: ATCC 33591, 24 h
Experimental: . The minimum inhibitory concentrations (MICs) of synthesized compounds were assessed according to the broth microdilution method using 96-well plates, in reference to the protocol of the Clinical and Laboratory Standards Institute (CLSI).[32],[33] In assays, reference strains of the bacteria S. aureus ATCC 25923, S. epidermidis ATCC 14990, and E. coli ATCC 25922 and the fungus C. glabrata ATCC 15126 were used, all from The Polish Collection of Microorganism, Polish Academy of Sciences, Wrocław, Poland. Bacteria at initial inoculums of 0.5 × 10^5 CFU/mL in Mueller–Hinton Broth (MHB), and fungus at initial inoculums of 2 × 10^3 CFU/mL in RPMI-1640, were exposed to the serial dilution of compounds. Tested concentrations were in the range 1–512 μg/mL. 96-well plates with microorganisms and tested substances were incubated at 37 °C for 18 h for bacteria and for 24 h for C. glabrata. The MIC values were taken as the lowest concentrations at which visible growth of microorganisms was inhibited. The minimum inhibitory concentrations (MICs) for MRSA ATCC 33591 were tested at the University of Liverpool. Bacterial cultures were grown overnight in Mueller–Hinton Agar (MHA) plates and adjusted to a final concentration of 10^5–10^6 CFU/mL. […] All the experiments were performed in two independent duplicates, and the MIC was determined as the lowest concentration in which no visible growth was observed.

[6] = tested on: MRSA; conditions: compared with the 4 μg/mL of the analogues; strain not given, context MRSA; cited from earlier work
Experimental: To determine the antimicrobial activity of these analogues, the MIC test using the microdilution method was chosen. Analogues were tested on three different types of bacteria: Gram-positive S. aureus and S. epidermidis, Gram-negative E. coli and fungus C. glabrata (Table 1) including the MRSA ATCC 33591.

Row | Molecule | MIC ([1]; Nakaseomyces glabratus, ATCC15126, CLSI broth microdilution, 96-well plates, RPMI-1640, inoculum 2 × 10^3 CFU/mL, 37 °C for 24 h, tested 1–512 μg/mL, visible growth) [µg/mL] | MIC C. glabrata ATCC 15126 [1] [µg/mL] | MIC E. coli ATCC 25922 [2] [µg/mL] | MIC S. aureus ATCC 25923 [3] [µg/mL] | MIC S. epidermidis ATCC 14990 [4] [µg/mL] | MIC MRSA ATCC 33591 [5] [µg/mL] | MIC ([2]; Escherichia coli, ATCC25922, 18 h, read-out: MIC E. coli ATCC 25922) [µg/mL] | potency (MIC) of natural teixobactin [6] [µg/mL]
1 | CC(=O)N1CCN(c2ccc(OCC3COC(Cn4ccnc4)(c4ccc(Cl)cc4Cl)O3)cc2)CC1 (stereo not drawn) [Ketoconazole, ketoconazole, reference compound] | 0.62 (≈ 1.17 µM) |  |  |  |  |  |  | 
2 | CC[C@H](C)[C@@H]1NC(=O)[C@H](CCCNC(=N)N)NC(=O)[C@H](C)NC(=O)[C@H](NC(=O)[C@H](CO)NC(=O)[C@@H](NC(=O)[C@H](NC(=O)[C@@H](CCC(N)=O)NC(=O)[C@H](CO)NC(=O)[C@@H](NC(=O)[C@@H](Cc2ccccc2)NC)[C@@H](C)CC)[C@@H](C)CC)[C@@H](C)CC)CNC1=O [TXGS-1, D-Dap8,Arg10-teixobactin, reference compound] |  | >512 | >512 | 32 (≈ 26 µM) | 256 (≈ 208 µM) |  |  | 
3 | CC[C@H](C)[C@H](NC(=O)[C@H](N)Cc1ccccc1)C(=O)N[C@@H](CO)C(=O)N[C@H](CCC(N)=O)C(=O)N[C@@H](C(=O)N[C@H](C(=O)N[C@@H](CO)C(=O)N[C@@H]1CNC(=O)[C@H]([C@@H](C)CC)NC(=O)[C@H](CCCNC(=N)N)NC(=O)[C@H](C)NC1=O)[C@@H](C)CC)[C@@H](C)CC [TXGS-2] |  | >512 | >512 | 32 (≈ 26.3 µM) | 128 (≈ 105 µM) |  |  | 
4 | CCCC[C@@H]1NC(=O)[C@H](CCCNC(=N)N)NC(=O)[C@H](C)NC(=O)[C@H](NC(=O)[C@H](CO)NC(=O)[C@@H](NC(=O)[C@H](NC(=O)[C@@H](CCC(N)=O)NC(=O)[C@H](CO)NC(=O)[C@@H](NC(=O)[C@@H](Cc2ccccc2)NC)[C@@H](C)CC)[C@@H](C)CC)[C@@H](C)CC)CNC1=O [TXGS-3] |  | >512 | >512 | 4 (≈ 3.25 µM) | 64 (≈ 52.1 µM) | 4 (≈ 3.25 µM) |  | 
5 | CC[C@H](C)[C@@H]1NC(=O)[C@H](CCCNC(=N)N)NC(=O)[C@H](C)NC(=O)[C@H](NC(=O)[C@H](CO)NC(=O)[C@@H](NC(=O)[C@H](NC(=O)[C@@H](CCCNC(=N)N)NC(=O)[C@H](CO)NC(=O)[C@@H](NC(=O)[C@@H](Cc2ccccc2)NC)[C@@H](C)CC)[C@@H](C)CC)[C@@H](C)CC)CNC1=O [TXGS-5] (H-[dNMeF]IS[dR][d(aIle)]IS[dDap]ARI; lactam 8-C) |  | 512 (≈ 407 µM) | 256 (≈ 204 µM) | 256 (≈ 204 µM) | 256 (≈ 204 µM) |  |  | 
6 | CC[C@H](C)[C@H](NC(=O)[C@H](N)Cc1ccccc1)C(=O)N[C@@H](CO)C(=O)N[C@H](CCCNC(=N)N)C(=O)N[C@@H](C(=O)N[C@H](C(=O)N[C@@H](CO)C(=O)N[C@@H]1CNC(=O)[C@H]([C@@H](C)CC)NC(=O)[C@H](CCCNC(=N)N)NC(=O)[C@H](C)NC1=O)[C@@H](C)CC)[C@@H](C)CC [TXGS-6] |  | >512 | >512 | 64 (≈ 51.5 µM) | 64 (≈ 51.5 µM) |  |  | 
7 | CCCC[C@@H]1NC(=O)[C@H](CCCNC(=N)N)NC(=O)[C@H](C)NC(=O)[C@H](NC(=O)[C@H](CO)NC(=O)[C@@H](NC(=O)[C@H](NC(=O)[C@@H](CCCNC(=N)N)NC(=O)[C@H](CO)NC(=O)[C@@H](NC(=O)[C@@H](Cc2ccccc2)NC)[C@@H](C)CC)[C@@H](C)CC)[C@@H](C)CC)CNC1=O [TXGS-7] (H-[dNMeF]IS[dR][d(aIle)]IS[dDap]AR[Nle]; lactam 8-C) |  | 64 (≈ 50.9 µM) | 32 (≈ 25.4 µM) | 4 (≈ 3.18 µM) | 8 (≈ 6.36 µM) | 4 (≈ 3.18 µM) |  | 
8 | CCCC[C@@H]1NC(=O)[C@H](CCCNC(=N)N)NC(=O)[C@H](C)NC(=O)[C@H](NC(=O)[C@H](CO)NC(=O)[C@@H](NC(=O)[C@H](NC(=O)[C@@H](CCCNC(=N)N)NC(=O)[C@H](CO)NC(=O)[C@@H](NC(=O)[C@H](N)Cc2ccccc2)[C@@H](C)CC)[C@@H](C)CC)[C@@H](C)CC)CNC1=O [TXGS-8] (H-[dF]IS[dR][d(aIle)]IS[dDap]AR[Nle]; lactam 8-C) |  | 128 (≈ 103 µM) | 64 (≈ 51.5 µM) | 8 (≈ 6.43 µM) | 8 (≈ 6.43 µM) |  |  | 
9 | CN[C@H](CC(C)C)C(=O)N[C@H]1C(=O)N[C@@H](CC(N)=O)C(=O)N[C@H]2C(=O)N[C@H]3C(=O)N[C@H](C(=O)N[C@H](C(=O)O)c4cc(O)cc(O)c4-c4cc3ccc4O)[C@H](O)c3ccc(c(Cl)c3)Oc3cc2cc(c3O[C@@H]2O[C@H](CO)[C@@H](O)[C@H](O)[C@H]2O[C@H]2C[C@](C)(N)[C@H](O)[C@H](C)O2)Oc2ccc(cc2Cl)[C@H]1O [Vancomicin, vancomycin, reference compound] |  |  |  |  |  |  | > 64 | 
10 | teixobactin |  |  |  |  |  |  |  | 0.25
